According to patent publication US9247759B2, “Identification of human T2R receptors that respond to bitter compounds that elicit the bitter taste in compositions, and the use thereof in assays to identify compounds that inhibit (block) bitter taste in compositions and use thereof” (SENOMYX, INC., priority 2007, dated 2016):
Like-named read-outs stand apart in the source and are kept apart here.

Tests used:
hT2R3 = hT2R3 (Homo sapiens (Human), UniProt Q9NYW6); test: hT2R panel inhibition, transient HEK293 G16g44, agonist Chloroquine pH6.5 50 μM; type: cell-based; conditions: HEK293, compound at 25 μM; receptor activated to EC80 with the corresponding agonist; read-out: screening result against bitter receptor 3
Summary of the method: (§1)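 Cells stably bearing the promiscuous G protein received one human T2R each by transient transfection and were assayed functionally. Ligands used at EC80; the test compound's inhibition equals the lowered activity.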

hT2R14 [1] = biological target: T1, hT2R14 (Homo sapiens (Human), UniProt Q9NYV8); test: hT2R14 antagonist high-throughput FLIPR assay, stable cell line with G16g44, agonist aristolochic acid; type: cell-based
Summary of the method: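 Compounds were co-applied with 3 μM aristolochic acid, a dose set to reach 70-80% of maximal hT2R14 activation. Read-out was FLIPR fluorescence in a stable HEK293 line co-expressing hT2R14 and G16g44.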

hT2R14 [2] = biological target: T1, hT2R14; test: hT2R panel inhibition, transient HEK293 G16g44, agonist Aristolochic Acid 2 μM; type: cell-based; conditions: HEK293, compound at 25 μM; receptor activated to EC80 with the corresponding agonist; read-out: screening result against bitter receptor 14
Summary of the method: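 Agonist challenge was at EC80, with 0.5 mM andrographolide on hT2R8 and 2 μM aristolochic acid on hT2R14. Inhibition was measured in functional assays in HEK293 cells that stably carry the promiscuous G protein G16g44 and were transiently transfected with the individual receptor.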

hT2R71 = hT2R71 (Homo sapiens (Human), UniProt P59536); test: hT2R panel inhibition, transient HEK293 G16g44, agonist Picric Acid 10 μM; type: cell-based; conditions: HEK293, compound at 25 μM; receptor activated to EC80 with the corresponding agonist; read-out: screening result against bitter receptor 71
Summary of the method: as §1

hT2R51 = hT2R51 (Homo sapiens (Human), UniProt P59533); test: hT2R panel inhibition, transient HEK293 G16g44, agonist Prop 2.5 μM; type: cell-based; conditions: HEK293, compound at 25 μM; receptor activated to EC80 with the corresponding agonist; read-out: screening result against bitter receptor 51
Summary of the method: as §1

hT2R7 = hT2R7 (Homo sapiens (Human), UniProt Q9NYW3); test: hT2R panel inhibition, transient HEK293 G16g44, agonist Chloroquine pH6.5 10 mM; type: cell-based; conditions: HEK293, compound at 25 μM; receptor activated to EC80 with the corresponding agonist; read-out: screening result against bitter receptor 7
Summary of the method: as §1

hT2R54 = test: hT2R panel inhibition, transient HEK293 G16g44, agonist Ranitidine 5 mM; type: cell-based, human; conditions: compound at 25 μM; receptor activated to EC80 with the corresponding agonist
Summary of the method: as §1

hT2R9 = hT2R9 (Homo sapiens (Human), UniProt Q9NYW1); test: hT2R panel inhibition, transient HEK293 G16g44, agonist Ofloxacin 1 mM; type: cell-based; conditions: HEK293, compound at 25 μM; receptor activated to EC80 with the corresponding agonist; read-out: screening result against bitter receptor 9
Description: Specifically, in order to evaluate the inhibitory selectivity of the Compound C compound, this compound was tested against 22 human T2Rs which were deorphaned by Senomyx. These receptors and the bitter ligands that activate these human T2Rs are reported in earlier patent applications which are incorporated by reference herein. These 22 human T2Rs are hT2R1, 3, 4, 5, 7, 8, 9, 10, 13, 14, 16, 44, 51, 54, 55, 61, 63, 64, 65, 67, 71 and 75. The amino acid and nucleic acid sequences of all of these T2Rs may be found in these earlier patent applications. These human T2Rs were each individually transiently transfected into HEK293 cells that stably express the promiscuous G protein G16g44 and functional assays were effected using these receptors as disclosed in these same patent applications. […] The ligands were used at EC80 concentration levels. The list of bitter ligands utilized and the tested ligand concentrations are contained in Table 5 of this example.
Relating to the foregoing, FIG. 5 contains experimental results wherein Compound C was tested with different agonist compounds. The inhibition activity is represented by the reduction of receptor activity in the presence of Compound C. […] These 13 hT2Rs are hT2R3, 7, 10, 14, 16, 44, 51, 55, 61, 63, 64, 65, and 71.

hT2R16 = hT2R16 (Homo sapiens (Human), UniProt Q9NYV7); test: hT2R panel inhibition, transient HEK293 G16g44, agonist Salicin 1 mM; type: cell-based; conditions: HEK293, compound at 25 μM; receptor activated to EC80 with the corresponding agonist; read-out: screening result against bitter receptor 16
Summary of the method: as §1

hT2R61 = hT2R61 (Homo sapiens (Human), UniProt P59537); test: hT2R panel inhibition, transient HEK293 G16g44, agonist Aristolochic Acid 25 nM; type: cell-based; conditions: HEK293, compound at 25 μM; receptor activated to EC80 with the corresponding agonist; read-out: screening result against bitter receptor 61
Summary of the method: as §1

hT2R5 = hT2R5 (Homo sapiens (Human), UniProt Q9NYW4); test: hT2R panel inhibition, transient HEK293 G16g44, agonist Picoline 10 mM; type: cell-based; conditions: HEK293, compound at 25 μM; receptor activated to EC80 with the corresponding agonist; read-out: screening result against bitter receptor 5
Summary of the method: as §1

hT2R65 = test: hT2R panel inhibition, transient HEK293 G16g44, agonist Oleuropein 1 mM; type: cell-based, human; conditions: compound at 25 μM; receptor activated to EC80 with the corresponding agonist
Summary of the method: as §1

hT2R55 = test: hT2R panel inhibition, transient HEK293 G16g44, agonist Cinchonine 150 μM; type: cell-based, human; conditions: compound at 25 μM; receptor activated to EC80 with the corresponding agonist
Summary of the method: as §1

hT2R44 = test: hT2R panel inhibition, transient HEK293 G16g44, agonist Denatonium 0.5 μM; type: cell-based, human; conditions: compound at 25 μM; receptor activated to EC80 with the corresponding agonist
Summary of the method: as §1

hT2R64 = hT2R64 (Homo sapiens (Human), UniProt P59538); test: hT2R panel inhibition, transient HEK293 G16g44, agonist Aristolochic Acid 1 μM; type: cell-based; conditions: HEK293, compound at 25 μM; receptor activated to EC80 with the corresponding agonist; read-out: screening result against bitter receptor 64
Summary of the method: as §1

hT2R10 = hT2R10 (Homo sapiens (Human), UniProt Q9NYW0); test: hT2R panel inhibition, transient HEK293 G16g44, agonist Strychnine 50 μM; type: cell-based; conditions: HEK293, read-out: screening result against bitter receptor 10, compound at 25 μM; receptor activated to EC80 with the corresponding agonist
hT2R67 = test: hT2R panel inhibition, transient HEK293 G16g44, agonist Andrographolide 5 μM; type: cell-based, human; conditions: compound at 25 μM; receptor activated to EC80 with the corresponding agonist
Summary of the method: as §1

hT2R63 = test: hT2R panel inhibition, transient HEK293 G16g44, agonist Caffeine 1 mM or Andrographolide 100 μM; type: cell-based, human; conditions: compound at 25 μM; receptor activated to EC80 with the corresponding agonist
Summary of the method: as §1

hT2R75 = hT2R75 (Homo sapiens (Human), UniProt P59540); test: hT2R panel inhibition, transient HEK293 G16g44, agonist Strychnine 1 μM; type: cell-based; conditions: HEK293, read-out: screening result against bitter receptor 75, compound at 25 μM; receptor activated to EC80 with the corresponding agonist
hT2R4 = hT2R4 (Homo sapiens (Human), UniProt Q9NYW5); test: hT2R panel inhibition, transient HEK293 G16g44, agonist Chloroquine pH6.5 5 mM; type: cell-based; conditions: HEK293, compound at 25 μM; receptor activated to EC80 with the corresponding agonist; class symbols; read-out: screening result against bitter receptor 4
Summary of the method: as §1

[3] = read-out: IC50 on hT2R14 bitter receptor

hT2R3, sequence (Q9NYW6 whole entry): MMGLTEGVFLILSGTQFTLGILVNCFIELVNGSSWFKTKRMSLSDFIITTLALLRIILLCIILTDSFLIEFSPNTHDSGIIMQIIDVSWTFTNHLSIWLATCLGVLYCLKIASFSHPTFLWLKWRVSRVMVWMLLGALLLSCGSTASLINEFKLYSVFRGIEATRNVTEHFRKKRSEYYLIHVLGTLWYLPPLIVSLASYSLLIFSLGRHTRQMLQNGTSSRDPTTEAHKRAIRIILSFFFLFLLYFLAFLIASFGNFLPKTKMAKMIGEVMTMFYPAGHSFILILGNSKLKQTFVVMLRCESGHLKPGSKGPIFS
hT2R71, sequence (P59536 whole entry): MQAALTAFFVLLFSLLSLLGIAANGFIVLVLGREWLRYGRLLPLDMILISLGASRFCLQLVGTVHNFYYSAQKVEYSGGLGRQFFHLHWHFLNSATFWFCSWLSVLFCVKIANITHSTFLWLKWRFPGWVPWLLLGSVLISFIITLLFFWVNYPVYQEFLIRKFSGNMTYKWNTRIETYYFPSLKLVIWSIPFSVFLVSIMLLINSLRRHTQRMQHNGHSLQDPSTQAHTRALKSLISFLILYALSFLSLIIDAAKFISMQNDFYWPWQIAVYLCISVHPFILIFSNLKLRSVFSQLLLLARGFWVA
T1 sequence (Q9NYV8 whole entry): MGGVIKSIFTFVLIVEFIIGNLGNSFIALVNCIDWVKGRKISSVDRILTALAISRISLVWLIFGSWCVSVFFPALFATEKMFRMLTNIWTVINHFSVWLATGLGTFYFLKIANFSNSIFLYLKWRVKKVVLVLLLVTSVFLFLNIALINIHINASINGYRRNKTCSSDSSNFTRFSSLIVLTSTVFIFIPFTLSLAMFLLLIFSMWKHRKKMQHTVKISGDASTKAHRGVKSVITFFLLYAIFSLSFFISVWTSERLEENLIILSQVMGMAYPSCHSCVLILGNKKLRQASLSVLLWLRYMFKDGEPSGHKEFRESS
hT2R10, sequence (Q9NYW0 whole entry): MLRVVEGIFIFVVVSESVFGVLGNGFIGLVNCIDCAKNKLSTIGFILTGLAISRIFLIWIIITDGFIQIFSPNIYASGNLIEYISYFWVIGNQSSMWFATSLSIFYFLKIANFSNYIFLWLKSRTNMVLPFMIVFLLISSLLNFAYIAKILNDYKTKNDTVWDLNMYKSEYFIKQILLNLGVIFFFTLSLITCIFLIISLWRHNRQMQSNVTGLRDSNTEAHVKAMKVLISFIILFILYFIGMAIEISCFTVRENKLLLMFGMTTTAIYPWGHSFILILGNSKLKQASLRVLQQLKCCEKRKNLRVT
hT2R16, sequence (Q9NYV7 whole entry): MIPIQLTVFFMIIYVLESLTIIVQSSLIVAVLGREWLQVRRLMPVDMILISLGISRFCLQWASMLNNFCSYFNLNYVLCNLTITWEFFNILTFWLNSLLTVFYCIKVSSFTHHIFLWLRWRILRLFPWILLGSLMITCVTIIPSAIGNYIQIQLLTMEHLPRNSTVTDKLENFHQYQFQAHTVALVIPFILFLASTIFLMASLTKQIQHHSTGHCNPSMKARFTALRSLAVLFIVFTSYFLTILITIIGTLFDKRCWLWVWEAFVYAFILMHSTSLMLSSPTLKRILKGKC
hT2R7, sequence (Q9NYW3 whole entry): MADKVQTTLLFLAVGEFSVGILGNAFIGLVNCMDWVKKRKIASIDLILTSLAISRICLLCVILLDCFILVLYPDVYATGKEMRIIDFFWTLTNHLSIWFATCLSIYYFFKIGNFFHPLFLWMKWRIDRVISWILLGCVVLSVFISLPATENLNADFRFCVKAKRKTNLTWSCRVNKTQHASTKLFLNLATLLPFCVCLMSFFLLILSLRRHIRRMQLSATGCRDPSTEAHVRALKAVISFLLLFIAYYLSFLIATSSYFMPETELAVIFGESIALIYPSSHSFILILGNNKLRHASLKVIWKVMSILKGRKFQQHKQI
hT2R61, sequence (P59537 whole entry): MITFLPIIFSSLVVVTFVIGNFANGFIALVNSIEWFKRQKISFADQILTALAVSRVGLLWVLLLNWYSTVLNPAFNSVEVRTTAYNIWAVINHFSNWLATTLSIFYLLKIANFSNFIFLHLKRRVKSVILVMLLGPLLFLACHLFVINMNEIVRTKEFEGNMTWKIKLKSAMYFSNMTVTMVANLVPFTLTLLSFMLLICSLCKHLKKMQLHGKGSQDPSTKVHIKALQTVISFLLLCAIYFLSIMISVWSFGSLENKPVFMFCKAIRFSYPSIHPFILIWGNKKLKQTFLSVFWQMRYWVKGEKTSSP
hT2R9, sequence (Q9NYW1 whole entry): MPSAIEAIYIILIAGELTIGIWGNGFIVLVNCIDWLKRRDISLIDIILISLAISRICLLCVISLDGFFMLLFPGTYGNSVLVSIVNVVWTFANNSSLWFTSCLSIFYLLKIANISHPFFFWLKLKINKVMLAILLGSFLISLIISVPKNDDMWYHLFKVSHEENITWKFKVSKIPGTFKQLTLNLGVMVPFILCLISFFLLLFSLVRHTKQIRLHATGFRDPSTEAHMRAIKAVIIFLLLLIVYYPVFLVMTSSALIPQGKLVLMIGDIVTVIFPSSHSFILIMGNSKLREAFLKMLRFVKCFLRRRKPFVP
hT2R51, sequence (P59533 whole entry): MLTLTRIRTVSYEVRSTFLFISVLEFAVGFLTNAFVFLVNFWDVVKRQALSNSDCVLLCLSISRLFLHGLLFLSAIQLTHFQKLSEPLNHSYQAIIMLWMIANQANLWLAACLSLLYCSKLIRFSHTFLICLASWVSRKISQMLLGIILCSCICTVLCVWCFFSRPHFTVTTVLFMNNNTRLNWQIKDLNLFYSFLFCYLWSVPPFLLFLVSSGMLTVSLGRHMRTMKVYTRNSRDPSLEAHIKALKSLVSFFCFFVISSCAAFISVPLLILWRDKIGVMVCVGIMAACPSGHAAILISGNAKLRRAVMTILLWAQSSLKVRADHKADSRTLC
hT2R64, sequence (P59538 whole entry): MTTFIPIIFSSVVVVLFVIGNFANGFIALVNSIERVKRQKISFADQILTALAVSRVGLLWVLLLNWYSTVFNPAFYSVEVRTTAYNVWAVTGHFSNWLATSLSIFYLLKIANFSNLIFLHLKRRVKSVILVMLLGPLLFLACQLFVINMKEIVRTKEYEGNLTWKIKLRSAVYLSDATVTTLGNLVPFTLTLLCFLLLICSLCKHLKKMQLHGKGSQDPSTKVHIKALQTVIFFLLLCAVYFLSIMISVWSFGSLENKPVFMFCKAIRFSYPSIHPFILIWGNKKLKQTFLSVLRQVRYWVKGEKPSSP
hT2R5, sequence (Q9NYW4 whole entry): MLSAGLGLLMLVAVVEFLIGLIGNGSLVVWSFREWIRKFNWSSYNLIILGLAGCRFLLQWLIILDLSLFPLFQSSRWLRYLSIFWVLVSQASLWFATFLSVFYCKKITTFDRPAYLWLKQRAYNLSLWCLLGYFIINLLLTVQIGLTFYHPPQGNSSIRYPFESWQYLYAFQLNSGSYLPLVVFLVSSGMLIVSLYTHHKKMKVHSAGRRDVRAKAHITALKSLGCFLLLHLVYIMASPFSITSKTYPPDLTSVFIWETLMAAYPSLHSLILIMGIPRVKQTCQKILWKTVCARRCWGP
hT2R75, sequence (P59540 whole entry): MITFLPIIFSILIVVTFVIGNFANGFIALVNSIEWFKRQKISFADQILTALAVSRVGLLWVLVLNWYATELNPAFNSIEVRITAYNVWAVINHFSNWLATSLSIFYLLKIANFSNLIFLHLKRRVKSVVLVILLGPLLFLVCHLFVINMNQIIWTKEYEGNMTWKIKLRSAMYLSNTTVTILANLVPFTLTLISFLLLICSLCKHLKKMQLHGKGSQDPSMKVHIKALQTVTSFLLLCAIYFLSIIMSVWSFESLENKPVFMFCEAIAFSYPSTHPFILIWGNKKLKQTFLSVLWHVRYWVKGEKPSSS
hT2R4, sequence (Q9NYW5 whole entry): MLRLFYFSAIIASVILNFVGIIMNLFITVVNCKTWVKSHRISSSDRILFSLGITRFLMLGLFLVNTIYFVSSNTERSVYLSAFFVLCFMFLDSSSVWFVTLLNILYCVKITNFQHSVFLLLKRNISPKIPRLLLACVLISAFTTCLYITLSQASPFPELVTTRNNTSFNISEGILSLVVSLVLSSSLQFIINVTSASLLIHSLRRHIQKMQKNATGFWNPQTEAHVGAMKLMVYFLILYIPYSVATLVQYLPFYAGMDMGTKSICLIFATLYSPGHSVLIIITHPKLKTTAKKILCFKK

Structure (SMILES)	inhibition at 25 µM (hT2R3) [%]	inhibition at 25 µM (hT2R14 [2]) [%]	inhibition at 25 µM (hT2R71) [%]	inhibition at 25 µM (hT2R51) [%]	inhibition at 25 µM (hT2R7) [%]	screening result against bitter receptor 54 (hT2R54)	inhibition at 25 µM (hT2R9) [%]	inhibition at 25 µM (hT2R16) [%]	inhibition at 25 µM (hT2R61) [%]	inhibition at 25 µM (hT2R5) [%]	screening result against bitter receptor 65 (hT2R65)	screening result against bitter receptor 55 (hT2R55)	screening result against bitter receptor 44 (hT2R44)	inhibition at 25 µM (hT2R64) [%]	inhibition at 25 µM (hT2R10) [%]	screening result against bitter receptor 67 (hT2R67)	screening result against bitter receptor 63 (hT2R63)	also measured
COc1ccc(CN(Cc2cccc(OC)c2)S(=O)(=O)c2ccc(C(=O)O)cc2)cc1 [Example 5-34, 4-(N-(3-methoxybenzyl)-N-(4-methoxybenzyl)sulfamoyl)-benzoic acid]	40 to 60	> 80	60 to 80	20 to 40	20 to 40	+++ (60% to 80% inhibition = +++)	20 to 40	20 to 40	> 80	40 to 60	++ (40% to 60% inhibition = ++)	++++ (80% or greater inhibition = ++++)	++ (40% to 60% inhibition = ++)	60 to 80	40 to 60	+ (20% to 40% inhibition = +)	++++ (80% or greater inhibition = ++++)	IC50 (hT2R14 [1]; [3]): 2.46 µM
O=C(O)c1ccc(S(=O)(=O)N(Cc2ccccc2)Cc2cccc(C(=O)O)c2)cc1 [Example 5-76, 3-((N-benzyl-4-carboxyphenylsulfonamido)methyl)benzoic acid]	20 to 40		20 to 40				20 to 40		40 to 60	20 to 40						+ (20% to 40% inhibition = +)	++ (40% to 60% inhibition = ++)	
COc1cc(OC)c(CN(Cc2ccccc2)S(=O)(=O)c2ccc(C(=O)O)cc2)c(OC)c1 [Example 5-15, 4-(N-benzyl-N-(2,4,6-trimethoxybenzyl)sulfamoyl)benzoic acid]	40 to 60	> 80	60 to 80		20 to 40		20 to 40	20 to 40	> 80	20 to 40	+ (20% to 40% inhibition = +)			60 to 80	40 to 60			IC50 (hT2R14 [1]; [3]): 10.8 µM
COc1ccc(CN(Cc2ccccc2)S(=O)(=O)c2ccc(C(=O)O)cc2)c(OC)c1 [Example 5-13, 4-(N-benzyl-N-(2,4-dimethoxybenzyl)sulfamoyl)benzoic acid]	40 to 60	> 80	40 to 60	20 to 40	20 to 40	+++ (60% to 80% inhibition = +++)	20 to 40	20 to 40	> 80	20 to 40	+ (20% to 40% inhibition = +)	++++ (80% or greater inhibition = ++++)	+++ (60% to 80% inhibition = +++)	60 to 80	20 to 40		++++ (80% or greater inhibition = ++++)	
O=C(O)c1ccc(CN(Cc2ccccc2F)S(=O)(=O)c2ccccc2)cc1 [Example 5-103, 4-((N-(2-fluorobenzyl)phenylsulfonamido)methyl)-benzoic acid]	40 to 60	> 80	> 80	20 to 40	20 to 40	++ (40% to 60% inhibition = ++)		20 to 40	> 80	20 to 40	++ (40% to 60% inhibition = ++)	++++ (80% or greater inhibition = ++++)	+++ (60% to 80% inhibition = +++)	> 80	20 to 40	+ (20% to 40% inhibition = +)	++ (40% to 60% inhibition = ++)	IC50 (hT2R14 [1]; Table C, read-out: hT2R14 IC50): 0.429 µM; inhibition at 25 µM (hT2R75): 20 to 40%; inhibition at 25 µM (hT2R4): 40 to 60%
COc1ccc(CN(Cc2ccccc2F)S(=O)(=O)c2ccc(C(=O)O)cc2)cc1 [Example 5-31, 4-(N-(2-fluorobenzyl)-N-(4-methoxybenzyl)sulfamoyl)benzoic acid]	20 to 40						20 to 40						+ (20% to 40% inhibition = +)					
COc1ccc(CN(Cc2cc(OC)cc(OC)c2)S(=O)(=O)c2ccc(C(=O)O)cc2)cc1 [Example 5-67, 4-(N-(3,5-dimethoxybenzyl)-N-(4-methoxybenzyl)sulfamoyl)benzoic acid]	40 to 60	60 to 80	40 to 60			++ (40% to 60% inhibition = ++)	20 to 40	20 to 40	40 to 60	20 to 40	+ (20% to 40% inhibition = +)	++++ (80% or greater inhibition = ++++)	++ (40% to 60% inhibition = ++)	60 to 80	40 to 60	+ (20% to 40% inhibition = +)	++++ (80% or greater inhibition = ++++)	IC50 (hT2R14 [1]; Table C, read-out: hT2R14 IC50): 12.1 µM
O=C(O)c1ccc(S(=O)(=O)N(Cc2ccccc2)Cc2ccccc2F)cc1 [Example 5-72, 4-(N-benzyl-N-(2-fluorobenzyl)sulfamoyl)benzoic acid]	20 to 40	> 80	20 to 40	20 to 40		+ (20% to 40% inhibition = +)	20 to 40	20 to 40	60 to 80	40 to 60	+ (20% to 40% inhibition = +)	++ (40% to 60% inhibition = ++)	+ (20% to 40% inhibition = +)	20 to 40	20 to 40	+ (20% to 40% inhibition = +)	++++ (80% or greater inhibition = ++++)	inhibition at 25 µM (hT2R75): 40 to 60%
